{"source": "patent US20230241071A1", "about": "“COMBINATION TREATMENT OF LIVER DISORDERS” (Terns Pharmaceuticals, Inc., priority 2021, published 2023)", "key": {"[1]": {"system": "rat CDHFD+NaNO2 NASH model", "assay": "Rat CDHFD+NaNO2 NASH model, liver RNAseq", "format": "in vivo", "conditions": "8 wk, Compound 3 3 mg/kg, Compound 1 25 mg/kg; for Down DEGs / Total DEGs / Up DEGs: liver RNAseq vs vehicle NASH control, adj. p<0.01, fold-change ≥1.5", "method": "Animal handling: After arrival, the rats were left for a 2-week acclimation period, during which they were accustomed to the animal facility staff and trained on the procedure of oral gavage. After 2 weeks the animals were put on CHDFD (choline deficient high fat diet) and pre-fed for 4 weeks. Then the rats were started on treatment with test compounds, and 3× per week i.p. NaNO2 injections, while they remained on CDHFD, for an additional 8 weeks. NaNO2 was administered at 25 mg/kg i.p. dissolved in PBS 3 times a week (on Mondays, Wednesdays, and Fridays) for 8 weeks while on CDHFD.\n(§1) Final Sacrifice: Half of the animals of each treatment group were terminated on day 84. The other half of the animals in each group were terminated on the following day, day 85. On the day of sacrifice the animals were fasted for 2 h and received a final treatment with the respective test substance. After the final compound treatment, the animals had no more access to food until sacrifice. At 4 h after the last administration all animals were sacrificed and livers were sampled for further analysis.\nAnimal handling: After arrival, the rats were left for a 2-week acclimation period, during which they were accustomed to the animal facility staff and trained on the procedure of oral gavage. After 2 weeks the animals were placed on a choline deficient high fat diet (CDHFD) and pre-fed for 4 weeks to induce steatosis and a NASH-like disease phenotype. Rats were then treated with test compounds for an additional 8 weeks while on CDHFD. Concomitant with compound treatment, rats were administered sodium nitrite (NaNO2, 25 mg/kg dissolved in PBS) by triweekly intraperitoneal (IP) injection to induce liver fibrosis.\nas §1, with “2 hours” for “2 h”, “4 hours” for “4 h”\nSampling and analysis: Small liver pieces were harvested into RNAlater (Thermo Fisher Scientific Dreieich Germany) and stored at −20° C. prior to RNA sequencing (RNAseq) at MedGenome Inc. RNAseq analysis was performed on liver tissue by Illumina sequencing using standard methodologies. Briefly, RNAseq libraries (n=5 per group) were generated using Illumina Truseq stranded mRNA kits and sequencing was performed on a NovaSeq 6000 sequencer. Alignment was performed using STAR (v2.7.3a) aligner and reads mapping to ribosomal and mitochondrial genome were removed prior to alignment. Raw read counts were estimated using HTSeq (v0.11.1) and normalized using DESeq2 (v2.22.2). Differentially expressed genes (DEGs) were determined using DESeq2 (R Bioconductor package)."}, "[2]": {"system": "SHBG, Apo B and serum lipids", "assay": "Single-ascending dose trial of Compound 2: serum PD markers", "format": "in vivo, human", "parameters": "LDL-c change from baseline / HDL-c change from baseline / TC change from baseline / Apo B change from baseline: unit not given here", "method": "Urine samples for Compound 2 concentration and PK sampling were collected pre-dose and at the following timepoints: 0-6 hours, 6-12 hours, 12-24 hours, and 24-48 hours. PK parameters were estimated via noncompartmental methods using Phoenix® WinNonlin® (Certara, LP, Princeton, N.J.). Concentrations of serum pharmacodynamic (PD) biomarkers apolipoprotein B (Apo B) and sex hormone binding globulin (SHBG) were measured using an immunoassay and serum lipids were determined using spectrophotometry.\nPD sampling was performed pre-dose, and 48 hours and 72 hours post-dose. Percent change from baseline for PD markers were calculated using an ANCOVA model with percent change from baseline as dependent variable, treatment group as fixed effect, and baseline as covariate. Analyses used observed data only without imputation for missing data."}, "[3]": {"conditions": "Day 3 after single dose 3 mg (n = 6)"}, "[4]": {"conditions": "Day 3 after single dose 10 mg (n = 6)"}, "[5]": {"conditions": "Day 3 after single dose 30 mg (n = 6)"}, "[6]": {"conditions": "Day 3 after single dose 60 mg (n = 6)"}}, "note": "Marks after values point to notes of the source that are not given here."}
{"smiles": "Cn1cc(C(=O)O)c2ccc(N3CCC(OCc4c(-c5c(Cl)cccc5Cl)noc4C4CC4)CC3)cc21", "note": "[Compound 3]", "values": [{"measurement": "Down DEGs", "setting": "[1]", "result": 118}, {"measurement": "Total DEGs", "setting": "[1]", "result": 309}, {"measurement": "Up DEGs", "setting": "[1]", "result": 191}, {"measurement": "Fabp2 differential gene expression relative to vehicle control", "setting": "[1]; liver RNAseq", "result": "−1.02* log2-fold change"}, {"measurement": "Irs1 differential gene expression relative to vehicle control", "setting": "[1]; liver RNAseq", "result": "−0.03", "unit": "log2-fold change"}, {"measurement": "Irs2 differential gene expression relative to vehicle control", "setting": "[1]; liver RNAseq", "result": 0.27, "unit": "log2-fold change"}, {"measurement": "Ldlr differential gene expression relative to vehicle control", "setting": "[1]; liver RNAseq", "result": 0.4, "unit": "log2-fold change"}, {"measurement": "Ldlrap1 differential gene expression relative to vehicle control", "setting": "[1]; liver RNAseq", "result": "−0.07", "unit": "log2-fold change"}, {"measurement": "Lrp1 differential gene expression relative to vehicle control", "setting": "[1]; liver RNAseq", "result": 0.51, "unit": "log2-fold change"}, {"measurement": "Lrp2 differential gene expression relative to vehicle control", "setting": "[1]; liver RNAseq", "result": 0.33, "unit": "log2-fold change"}, {"measurement": "Ppara differential gene expression relative to vehicle control", "setting": "[1]; liver RNAseq", "result": 0.36, "unit": "log2-fold change"}, {"measurement": "Ppargcla differential gene expression relative to vehicle control", "setting": "[1]; liver RNAseq", "result": 0.25, "unit": "log2-fold change"}, {"measurement": "Rxra differential gene expression relative to vehicle control", "setting": "[1]; liver RNAseq", "result": 0.03, "unit": "log2-fold change"}, {"measurement": "Slc27a1 differential gene expression relative to vehicle control", "setting": "[1]; liver RNAseq", "result": 0.16, "unit": "log2-fold change"}, {"measurement": "Slc27a5 differential gene expression relative to vehicle control", "setting": "[1]; liver RNAseq", "result": 0.5, "unit": "log2-fold change"}, {"measurement": "Vegfa differential gene expression relative to vehicle control", "setting": "[1]; liver RNAseq", "result": 0.48, "unit": "log2-fold change"}, {"measurement": "Vegfc differential gene expression relative to vehicle control", "setting": "[1]; liver RNAseq", "result": "−0.28", "unit": "log2-fold change"}, {"measurement": "Vldlr differential gene expression relative to vehicle control", "setting": "[1]; liver RNAseq", "result": "−0.58", "unit": "log2-fold change"}]}
{"smiles": "N#Cc1nn(-c2cc(Cl)c(Oc3n[nH]c(=O)c4ccccc34)c(Cl)c2)c(=O)[nH]c1=O", "note": "[Compound 2, 2-(3,5-dichloro-4-((4-oxo-3,4-dihydrophthalazin-1-yl)oxy)phenyl)-3,5-dioxo-2,3,4,5-tetrahydro-1,2,4-triazine-6-carbonitrile]", "values": [{"measurement": "LDL-c, total cholesterol, and Apo-B", "setting": "[2]; Day 3 after single dose", "result": "Dose-dependent decreases"}, {"measurement": "Apo B LSM % change", "setting": "[2]; [3]", "result": "−2.7", "unit": "%"}, {"measurement": "Apo B change from baseline", "setting": "[2]; [3]", "result": "−1.5"}, {"measurement": "HDL-c LSM % change", "setting": "[2]; [3]", "result": 2.4, "unit": "%"}, {"measurement": "HDL-c change from baseline", "setting": "[2]; [3]", "result": 0.87}, {"measurement": "LDL-c LSM % change", "setting": "[2]; [3]", "result": "−3.1", "unit": "%"}, {"measurement": "LDL-c change from baseline", "setting": "[2]; [3]", "result": "−3.98"}, {"measurement": "SHBG LSM % change", "setting": "[2]; [3]", "result": 6.3, "unit": "%"}, {"measurement": "SHBG change from baseline", "setting": "[2]; [3]", "result": 0.20, "unit": "nmol/L"}, {"measurement": "TC LSM % change", "setting": "[2]; [3]", "result": "−0.88", "unit": "%"}, {"measurement": "TC change from baseline", "setting": "[2]; [3]", "result": "−1.85"}, {"measurement": "Apo B LSM % change", "setting": "[2]; [4]", "result": "−6.0", "unit": "%"}, {"measurement": "Apo B change from baseline", "setting": "[2]; [4]", "result": "−5.6"}, {"measurement": "HDL-c LSM % change", "setting": "[2]; [4]", "result": "−1.0", "unit": "%"}, {"measurement": "HDL-c change from baseline", "setting": "[2]; [4]", "result": "−1.1"}, {"measurement": "LDL-c LSM % change", "setting": "[2]; [4]", "result": 0.70, "unit": "%"}, {"measurement": "LDL-c change from baseline", "setting": "[2]; [4]", "result": 0.68}, {"measurement": "SHBG LSM % change", "setting": "[2]; [4]", "result": 31.3, "unit": "%"}, {"measurement": "SHBG change from baseline", "setting": "[2]; [4]", "result": 15.8, "unit": "nmol/L"}, {"measurement": "TC LSM % change", "setting": "[2]; [4]", "result": "−0.84", "unit": "%"}, {"measurement": "TC change from baseline", "setting": "[2]; [4]", "result": "−1.93"}, {"measurement": "Apo B LSM % change", "setting": "[2]; [5]", "result": "−11.0", "unit": "%"}, {"measurement": "Apo B change from baseline", "setting": "[2]; [5]", "result": "−11.5"}, {"measurement": "HDL-c LSM % change", "setting": "[2]; [5]", "result": "−12.1", "unit": "%"}, {"measurement": "HDL-c change from baseline", "setting": "[2]; [5]", "result": "−6.1"}, {"measurement": "LDL-c LSM % change", "setting": "[2]; [5]", "result": "−12.5", "unit": "%"}, {"measurement": "LDL-c change from baseline", "setting": "[2]; [5]", "result": "−15.7"}, {"measurement": "SHBG LSM % change", "setting": "[2]; [5]", "result": 16.5, "unit": "%"}, {"measurement": "SHBG change from baseline", "setting": "[2]; [5]", "result": 6.0, "unit": "nmol/L"}, {"measurement": "TC LSM % change", "setting": "[2]; [5]", "result": "−11.84", "unit": "%"}, {"measurement": "TC change from baseline", "setting": "[2]; [5]", "result": "−24.14"}, {"measurement": "Apo B LSM % change", "setting": "[2]; [6]", "result": "−15.75", "unit": "%"}, {"measurement": "Apo B change from baseline", "setting": "[2]; [6]", "result": "−13.9"}, {"measurement": "SHBG LSM % change", "setting": "[2]; [6]", "result": 13.8, "unit": "%"}, {"measurement": "SHBG change from baseline", "setting": "[2]; [6]", "result": 5.05, "unit": "nmol/L"}, {"measurement": "triglyceride levels", "setting": "[2]; after a single dose", "result": "No significant changes"}, {"measurement": "SHBG relative to placebo", "setting": "[2]; single doses of ≥10 mg", "result": "Significant increases"}]}
{"smiles": "COC1CCN(c2ncc(OC/C(=C/F)CN)cn2)CC1", "note": "[Compound 1, (E)-3-fluoro-2-(((2-(4-methoxypiperidin-1-yl)pyrimidin-5-yl)oxy)methyl)prop-2-en-1-amine]", "values": [{"measurement": "Down DEGs", "setting": "[1]", "result": 641}, {"measurement": "Total DEGs", "setting": "[1]", "result": 847}, {"measurement": "Up DEGs", "setting": "[1]", "result": 206}]}
